The results in this text go back to US20240148744A1 (Celgene Corporation, priority 2021, published 2024).

The subject of one experiment is Dirofilaria immitis. In words: Heartworm screen Dirofilaria immitis (stage DiMF/DiL4 not specified in the tables). It counts as cell-based. As to conditions: read-out: D. immitis Activity class.
The test system of experiment [1] is Onchocerca gutturosa adult male worms. In words: Onchocerca gutturosa in vitro screening model: adult worm motility score and MTT/formazan viability. It counts as cell-based.
Where [2] appears, read: read-out: O. gutt Activity class.

Where two headings read alike, the source gives them in different places.

As to `Cc1ccc(S(=O)(=O)Nc2cccc3cccnc23)nc1` [Compound 248, 5-methyl-N-(quinolin-8-yl)pyridine-2-sulfonamide], the IC50 with Dirofilaria immitis lay within 200 to 500 nM; in experiment [1] (setting [2]) it was 500 to 5000 nM.
Taken in the same sequence, the figures for `Cc1ccc(S(=O)(=O)Nc2cccc3cc(C)cnc23)nc1` [Compound 113, 5-methyl-N-(3-methyl-quinolin-8-yl)-pyridine-2-sulfonamide] were 200 to 500 nM and less than 200 nM.
Taken in the same sequence, the figures for `Cc1cn(C)c(S(=O)(=O)Nc2cccc3cccnc23)n1` [Compound 231, 1,4-dimethyl-N-(quinolin-8-yl)-1H-imidazole-2-sulfonamide] were less than 200 nM and 500 to 5000 nM.
As to `O=S(=O)(Nc1cccc2cccnc12)c1nccc2ccccc12` [Compound 225, N-(quinolin-8-yl)isoquinoline-1-sulfonamide], the IC50 is 500 to 5000 nM in the experiment with Dirofilaria immitis and less than 200 nM in experiment [1] (setting [2]).
In the same order, the values of `CN(C)c1cccnc1S(=O)(=O)Nc1cccc2c1N(C1CC1)CCC2` [Compound 42, N-(1-cyclo-propyl-1,2,3,4-tetra-hydroquin-olin-8-yl)-3-(dimethyl-amino)pyr-idine-2-sulfonamide] are 500 to 5000 nM and 500 to 5000 nM.
Taken in the same sequence, the figures for `Cc1nc(Cl)ccc1S(=O)(=O)Nc1cccc2cccnc12` [Compound 179, 6-chloro-2-methyl-N-(quinolin-8-yl)pyridine-3-sulfonamide] were 500 to 5000 nM and less than 200 nM.
Consider `Cc1ccc(S(=O)(=O)Nc2cccc3cc(Cl)cnc23)nc1` [Compound 120, N-(3-chloro-quinolin-8-yl)-5-methylpyr-idine-2-sulfon-amide], for which the IC50 (in the experiment on Dirofilaria immitis; in experiment [1] (setting [2])) was 200 to 500 nM each time.
Regarding `N#Cc1cccc(S(=O)(=O)Nc2ccc(N3CCOCC3)c3cccnc23)c1` [Compound 80, 3-cyano-N-(5-morpho-linoquinolin-8-yl)ben-zenesulfon-amide], the IC50 is 500 to 5000 nM in the experiment on Dirofilaria immitis and less than 200 nM in experiment [1] (setting [2]).
As to `Cc1ccc(S(=O)(=O)Nc2cccc3cccnc23)o1` [Compound 276, 5-methyl-N-(quinolin-8-yl)furan-2-sulfonamide], the IC50 (in the experiment on Dirofilaria immitis; in experiment [1] (setting [2])) was 200 to 500 nM in each case.
On to `O=S(=O)(Nc1cccc2cccnc12)c1cnccn1` [Compound 271, N-(quinolin-8-yl)pyrazine-2-sulfonamide], for which the IC50 in the experiment with Dirofilaria immitis was 500 to 5000 nM; in experiment [1] (setting [2]), less than 200 nM.
Taken in the same sequence, the figures for `Cc1cccnc1S(=O)(=O)Nc1cccc2c(-c3ccccc3)ccnc12` [Compound 30, 3-methyl-N-(4-phenyl-quinolin-8-yl)pyridine-2-sulfonamide] were 500 to 5000 nM and 500 to 5000 nM.
In the case of `COc1cnc2c(NS(=O)(=O)c3ccc(C)cn3)cccc2c1` [Compound 121, N-(3-methoxy-quinolin-8-yl)-5-methylpyr-idine-2-sulfon-amide], the results for the IC50 (with Dirofilaria immitis; in experiment [1] (setting [2])) were 500 to 5000 nM and less than 200 nM, respectively.
In the case of `CCn1ccnc1S(=O)(=O)Nc1cccc2cc(Cl)cnc12` [Compound 116, N-(3-chloro-quinolin-8-yl)-1-ethyl-1H-imidazole-2-sulfonamide], the IC50 (in the experiment with Dirofilaria immitis; in experiment [1] (setting [2])) was 200 to 500 nM throughout.
Regarding `CN(C)c1cccnc1S(=O)(=O)Nc1c(Cl)ccc2cccnc12` [Compound 99, N-(7-chloro-quinolin-8-yl)-3-(dimethyl-amino)pyridine-2-sulfonamide], the IC50 (in the experiment on Dirofilaria immitis; in experiment [1] (setting [2])) was 500 to 5000 nM each time.
For `CCn1ccnc1S(=O)(=O)Nc1cccc2c(OC)ccnc12` [Compound 122, 1-ethyl-N-(4-methoxyquin-olin-8-yl)-1H-imidazole-2-sulfonamide], the IC50 in the experiment on Dirofilaria immitis was 500 to 5000 nM; in experiment [1] (setting [2]) it was less than 200 nM.
Taken in the same sequence, the figures for `Cc1cc(S(=O)(=O)Nc2cccc3cccnc23)ccn1` [Compound 154, 2-methyl-N-(quinolin-8-yl)pyridine-4-sulfonamide] were 500 to 5000 nM and 200 to 500 nM.
Take `O=S(=O)(Nc1cccc2cccnc12)c1ccc(-c2ccccc2)nc1` [Compound 189, 6-phenyl-N-(quinolin-8-yl)pyridine-3-sulfonamide]: the IC50 in the experiment with Dirofilaria immitis was in the range of 500 to 5000 nM; in experiment [1] (setting [2]) it was 200 to 500 nM.
As for `Cc1nccnc1S(=O)(=O)Nc1ccc(N2CCOCC2)c2cccnc12` [Compound 75, 3-methyl-N-(5-morpho-linoquinolin-8-yl)pyrazine-2-sulfonamide], the IC50 in the experiment on Dirofilaria immitis was 500 to 5000 nM; in experiment [1] (setting [2]) it was less than 200 nM.
Taken in the same sequence, the figures for `Cc1cc(C#N)cc(S(=O)(=O)Nc2cccc3cccnc23)n1` [Compound 167, 4-cyano-6-methyl-N-(quinolin-8-yl)pyridine-2-sulfonamide] were 500 to 5000 nM and 200 to 500 nM.
For `CCn1ccnc1S(=O)(=O)Nc1ccc(F)c2cccnc12` [Compound 108, 1-ethyl-N-(5-fluoroquinolin-8-yl)-1H-imidazole-2-sulfonamide], the IC50 in the experiment with Dirofilaria immitis was less than 200 nM; in experiment [1] (setting [2]) it was 500 to 5000 nM.
In the case of `Cc1ccc(S(=O)(=O)Nc2ccc(F)c3cccnc23)nc1` [Compound 126, N-(5-fluoro-quinolin-8-yl)-5-methylpyr-idine-2-sulfon-amide], the values for the IC50 (in the experiment with Dirofilaria immitis; in experiment [1] (setting [2])) were 200 to 500 nM and 500 to 5000 nM, respectively.
Taken in the same sequence, the figures for `O=S(=O)(Nc1cccc2cccnc12)c1cccc(Cl)n1` [Compound 221, 6-chloro-N-(quinolin-8-yl)pyridine-2-sulfonamide] were 500 to 5000 nM and less than 200 nM.
Consider `Cc1cccc(S(=O)(=O)Nc2cccc3cccnc23)n1` [Compound 272, 6-methyl-N-(quinolin-8-yl)pyridine-2-sulfonamide], for which the IC50 in the experiment with Dirofilaria immitis is 500 to 5000 nM; in experiment [1] (setting [2]), less than 200 nM.
Taken in the same sequence, the figures for `Cc1cccnc1S(=O)(=O)Nc1cccc2c(C3CC3)ccnc12` [Compound 27, N-(4-cyclo-propylquin-olin-8-yl)-3-methylpyr-idine-2-sulfonamide] were 500 to 5000 nM and 500 to 5000 nM.
For the molecule `Cc1ccnc(S(=O)(=O)Nc2cccc3cccnc23)c1` [Compound 265, 4-methyl-N-(quinolin-8-yl)pyridine-2-sulfonamide], the IC50 is 200 to 500 nM in the experiment with Dirofilaria immitis and less than 200 nM in experiment [1] (read-out: O. gutt Activity class, in vitro motility).
Consider `CCn1ccnc1S(=O)(=O)Nc1cccc2cc(F)cnc12` [Compound 109, 1-ethyl-N-(3-fluoroquinolin-8-yl)-1H-imidazole-2-sulfonamide], for which the values for the IC50 (in the experiment on Dirofilaria immitis; in experiment [1] (setting [2])) were 200 to 500 nM and less than 200 nM, respectively.
On to `CC(C)n1nccc1S(=O)(=O)Nc1cccc2cccnc12` [Compound 206, 1-isopropyl-N-(quinolin-8-yl)-1H-pyrazole-5-sulfonamide], for which the values for the IC50 (in the experiment on Dirofilaria immitis; in experiment [1] (setting [2])) were 500 to 5000 nM and 200 to 500 nM, respectively.
In the same order, the values of `COc1ccnc2c(NS(=O)(=O)c3ncccc3C)cccc12` [Compound 14, N-(4-meth-oxyquinolin-8-yl)-3-meth-ylpyridine-2-sulfonamide] are 500 to 5000 nM and 500 to 5000 nM.
Taken in the same sequence, the figures for `CC(C)Oc1ccnc(S(=O)(=O)Nc2cccc3cccnc23)c1` [Compound 245, 4-isopropoxy-N-(quinolin-8-yl)pyridine-2-sulfonamide] were 200 to 500 nM and less than 200 nM.
Taken in the same sequence, the figures for `Cc1cc(S(=O)(=O)Nc2cccc3cccnc23)cc(C)n1` [Compound 186, 2,6-dimethyl-N-(quinolin-8-yl)pyridine-4-sulfonamide] were 500 to 5000 nM and 200 to 500 nM.
